The test system of series [1] is primary rat in vitro BBB model. In words: Permeability of endothelium to Lucifer Yellow (BBB integrity). In kind it is in vitro ADME. As to conditions: 10 µM Lucifer Yellow apical, added with the peptides; Ringer-HEPES pH 7.4; 37 °C; 5-60 min; fluorescence 428/536 nm. How it is done:
All incubations were performed at 37 °C.

In series [2] the test system is primary rat in vitro BBB model (primary rat endothelial cells co-cultured with primary rat glial cells). Conditions: for permeability coefficient (Pe) through in vitro BBB: pH 7.4.
Description: The permeability of peptides was assessed using a primary rat in vitro BBB model. […] Transendothelial electrical resistance (TEER) measurements were used to measure the resistance of tight junctions in our BBB model. For our experiments, we used only inserts with the TEER value ≥320 ± 20 Ώ cm^−2 that corresponded to an intact in vitro BBB model. Alternatively, the integrity of the in vitro rat BBB model was assessed by measuring the permeability of the paracellular compound Lucifer Yellow (LY). Lucifer Yellow was added to the well with the peptides.
To test the permeability of selected peptides across in vitro BBB model, peptide transport to the abluminal compartment was quantified by ultra-high-performance liquid chromatography/mass spectrometry (UHPLC–MS/MS) method.
As a negative control, we performed the permeability experiments with N–C reversed sequence peptides: [sequence] and [sequence].
To test the effect of temperature on the transport of peptides across BBB, endothelial cells were incubated with peptides at 4°C to reduce cell metabolism which slows down endocytosis.
Briefly, 4 Sprague–Dawley rats (200–250 g, 6 months old) were euthanized, and the whole brains were removed. Under sterile conditions, the brainstem and cerebellum were dissected, and the midbrain, white matter, and choroid plexus were removed. The remaining cortical tissue was cleaned from meninges on dry Whatman paper. The tissue was homogenized on ice in DMEM-F12 (PAA laboratories GmbH, Germany). The brain homogenate was centrifuged at 800× g for 10 min at 4 °C. The supernatant was aspirated, and the pellet was resuspended in pre-warmed digestion mix containing collagenase/dispase (Roche Diagnostics, Indianapolis, IN, USA) and DNase I (Sigma–Aldrich, St. Louis, MO, USA). The tissue was incubated with a prepared digestion mix at 37 °C for 30 min with gentle shaking. Digested tissue was centrifuged at 800× g for 10 min at 4 °C, and the pellet was resuspended in 20% bovine serum albumin (BSA, Sigma–Aldrich, St. Louis, MO). The tissue was centrifuged at 1500× g for 15 min at 4 °C to obtain pellet containing microvessels with a fraction of myelin and BSA on the top, which was centrifuged again. The microvessels were pooled and resuspended in pre-warmed digestion mix and digested for 15 min at 37 °C. The microvessels pellet was again centrifuged at 800× g for 10 min at 4 °C and washed with culture medium containing the serum. The microvessels were cultured in DMEM-F12 medium (PAA Laboratories GmbH, Germany) containing 15% plasma-derived serum (PDS) (First Link, UK), 2 mM L-glutamine (GE Healthcare, UK), BME vitamins (Sigma–Aldrich, St. Louis, MO), heparin (Sigma–Aldrich, St. Louis, MO) and 3 µM puromycine (Sigma–Aldrich, St. Louis, MO). After 7 days, cells were seeded on the upper chamber (apical compartment) of Transwell insert with a 0.4 µm pore size (Becton Dickinson, New Jersey, USA) pre-coated with 10 µg/cm^2 collagen type IV (Sigma–Aldrich, St. Louis, MO) and 5 µg/cm^2 fibronectin (Sigma–Aldrich, St. Louis, MO).
Another series in a line: in vitro. As to conditions: Sprague-Dawley, rat, pH 7.4.

Ends that are not written are not given here.

For Lucifer Yellow, the “endothelial permeability coefficient (Pe) of LY” value in series [1] is on record as “around 11 × 10^−6 cm/s”.

Take GLHTSATNLYLH: in series [2], the “permeability at 4 °C (37 °C: 100%)” value is 79%, the “permeability reduced at 4 °C” value amounted to 20.5% and the “permeability coefficient (Pe) through in vitro BBB” value stood at 0.33 ×10⁻⁶ cm/s. As for HLYLNTASTHLG, the “permeability coefficient (Pe) through in vitro BBB” value in series [2] stood at 0.75 ×10⁻⁶ cm/s. As usually defined, the Papp A→B is how fast a substance crosses the layer from the apical side. A high value points to ready permeation. For VAARTGEIYVPW, in series [2], the “permeability at 4 °C (37 °C: 100%)” value was 69% and the “permeability reduced at 4 °C” value is given as 30.5%. For the same substance, the Papp A→B in “in vitro” came out at 1.5 ×10⁻⁶ cm/s. Turning to WPVYIEGTRAAV, the Papp A→B in the series “in vitro” came out at 0.5 ×10⁻⁶ cm/s.

The record behind these values is article PMC7070575, “Novel Blood–Brain Barrier Shuttle Peptides Discovered through the Phage Display Method” (Molecules, 2020).
